Converted amounts (≈) assume the structure as drawn.
Conditions: buffer; pH 7.4; 200.0 µM
For `Cc1ccc(NC(=S)c2ccncc2)c(C)c1`, the solubility kinetic was 34.2 µg/mL (≈ 141 µM).
With `CC1(C)Cc2nc3sc(C(=O)NCCCO)c(N)c3cc2CO1` the solubility kinetic was over 50.3 µg/mL.
Work on `Cc1ccc(CN2CCN(C(=O)CC(C)C)CC2)cc1` yielded a solubility kinetic of 25.1 µg/mL (≈ 91.5 µM).
For `O=C(Cc1ccc([N+](=O)[O-])cc1)NC1CCCCCC1`, the solubility kinetic was 15 µg/mL (≈ 54.3 µM).
`COc1ccc(NC(=O)CSCC(=O)N=c2sccn2C)cc1` gave a solubility kinetic of 49.9 µg/mL (≈ 142 µM).
In the case of `CCOc1ccc2c(c1)C(=O)C(=O)N2CC1COc2ccccc2O1` (stereo not given), the solubility kinetic is reported as 1.2 µg/mL (≈ 3.54 µM).
With `O=C(Nc1ncccc1O)c1c(O)c2ccccc2[nH]c1=O` the solubility kinetic was 11.1 µg/mL (≈ 37.3 µM).
Molecule `COc1cc2nc(CN3CCN(S(=O)(=O)c4ccccc4C(F)(F)F)CC3)[nH]c(=O)c2cc1OC` has a solubility kinetic of 12.4 µg/mL (≈ 24.2 µM).
In the case of `CCN(CC)S(=O)(=O)c1ccc(Oc2ccccc2OC)cc1`, the solubility kinetic is reported as 10 µg/mL (≈ 29.8 µM).
In the case of `CC(C)COC(=O)N1C[C@H](O)C[C@H]1C(=O)Nc1ccc(Cl)cc1`, the solubility kinetic is reported as over 51.1 µg/mL.
For `CCOC(=O)C1=C(N)Oc2cc(O)ccc2C1c1cccc(Cl)c1` (stereo not given), the solubility kinetic was under 0.7 µg/mL.
With `CCCCN(C(=O)Nc1ccccc1)C1CCS(=O)(=O)C1` (stereo not given) the solubility kinetic was over 46.6 µg/mL.
Work on `O=C(c1ccc(Cl)cc1)C1CCN(Cc2ccccc2)CC1` yielded a solubility kinetic of over 47.1 µg/mL.
Work on `CC1(C)C(=O)Nc2ccccc2N1C(=O)COc1ccc(C#N)cc1` yielded a solubility kinetic of 38.1 µg/mL (≈ 114 µM).
`CC(=O)N1CCN(C(=O)CCC(=O)O)CC1` gave a solubility kinetic of 30.9 µg/mL (≈ 135 µM).
`CC1CCCCC1NC(=O)CCS(=O)(=O)c1ccc(Cl)cc1` (stereo not given) gave a solubility kinetic of 22.8 µg/mL (≈ 66.3 µM).
In the case of `Cc1c(C)n(CCc2ccccc2)c2ncnc(NCCO)c12`, the solubility kinetic is reported as over 46.6 µg/mL.
`CN(C(=O)COC(=O)c1ccccc1C(=O)c1ccccc1)c1ccccc1` showed a solubility kinetic of 42.7 µg/mL (≈ 114 µM).
Work on `N/C(=N\OC(=O)Cc1ccc(Cl)cc1)c1ccncc1` yielded a solubility kinetic of 27.1 µg/mL (≈ 93.5 µM).
`COc1ccc(/C=C(\C#N)C(=O)c2cccn2C)cc1` gave a solubility kinetic of 5 µg/mL (≈ 18.8 µM).
Work on `COc1ccc(/C=C2/NC(=O)CNC2=O)cc1` yielded a solubility kinetic of over 34.8 µg/mL.
For `O=C(Nc1ccc(Cl)cc1)N1CCN(c2ncccn2)CC1`, the solubility kinetic was 44.4 µg/mL (≈ 140 µM).
Molecule `Cc1cc(C)n(CC(=O)N2CCc3ccccc32)c(=O)c1C#N` has a solubility kinetic of 7 µg/mL (≈ 22.8 µM).
In the case of `CCN1CCN(C(=O)c2ccc(C(F)(F)F)cc2)CC1`, the solubility kinetic is reported as 40.6 µg/mL (≈ 142 µM).
In the case of `Cn1ccsc1=NC(=O)c1cccc(OC(F)F)c1`, the solubility kinetic is reported as over 42.6 µg/mL.
Work on `CCc1cccc(CC)c1NC(=O)CSc1nnc(C2CC2)n1C` yielded a solubility kinetic of over 51.7 µg/mL.
Molecule `O=C(O)c1ccc2c(c1)C(=O)N(c1cccc3ccccc13)C2=O` has a solubility kinetic of over 47.6 µg/mL.
For `O=C(COc1ccccc1)NC1CCCCCCC1`, the solubility kinetic was 36.2 µg/mL (≈ 139 µM).
Molecule `CC(=O)c1ccc(/C=C/c2nc3ccccc3n2C)o1` has a solubility kinetic of over 39.9 µg/mL.
For `Cc1ccccc1C(=O)Nc1cccc(NC(=O)c2ccc(F)cc2)c1`, the solubility kinetic was 1.8 µg/mL (≈ 5.17 µM).
`Cc1ccc(CC(=O)O/N=C(\N)c2ccccn2)cc1` showed a solubility kinetic of 27.5 µg/mL (≈ 102 µM).
Work on `CCCCCC(=O)Nc1cccc(S(=O)(=O)NC2=NCCC2)c1` yielded a solubility kinetic of over 50.6 µg/mL.
Molecule `O=C(/C=C/c1ccccc1)N(Cc1cccc(Cl)c1)C1CCS(=O)(=O)C1` (stereo not given) has a solubility kinetic of 14.1 µg/mL (≈ 36.2 µM).
With `Cc1ccc(OC(=O)CCC(=O)Nc2ccc(C)c(C)c2)cc1` the solubility kinetic was 43.2 µg/mL (≈ 139 µM).
Molecule `COCCNC(=S)N1CCC(C(=O)c2ccc(C)cc2)CC1` has a solubility kinetic of 43.2 µg/mL (≈ 135 µM).
Molecule `COC(=O)c1ccccc1S(=O)(=O)N1CCC(C(=O)Nc2ccc(N3CCOCC3)cc2)CC1` has a solubility kinetic of over 73.1 µg/mL.
With `Cc1cccc(OCc2nnc(SC(C)C(=O)Nc3ccc(N4CCOCC4)cc3)o2)c1` (stereo not given) the solubility kinetic was over 68.2 µg/mL.
Molecule `Cc1cc(C(=O)COC(=O)c2ccco2)c(C)n1Cc1ccco1` has a solubility kinetic of 2.5 µg/mL (≈ 7.64 µM).
`O=C(CSc1ccc(F)cc1)NCCc1ccc(Cl)cc1` gave a solubility kinetic of 8.6 µg/mL (≈ 26.6 µM).
Work on `COc1ccccc1C(=O)Nc1ccccc1C(=O)Nc1ccccc1` yielded a solubility kinetic of under 0.4 µg/mL.
In the case of `CCCCc1nc2cc(C(=O)N3CCCC3)ccc2o1`, the solubility kinetic is reported as over 40.9 µg/mL.
`CSc1sc(C(=O)NCC2CC2)c(-c2cccs2)c1C#N` showed a solubility kinetic of 8.6 µg/mL (≈ 25.7 µM).
In the case of `COc1ccc(OCCCn2ccnc2)cc1.Cl`, the solubility kinetic is reported as 36 µg/mL.
With `Cc1ccc(-n2c(C)c(C)c3c(N)ncnc32)cc1` the solubility kinetic was 16.1 µg/mL (≈ 63.8 µM).
`CC(C)c1ccc(S(=O)(=O)NC2CCS(=O)(=O)C2)cc1` (stereo not given) showed a solubility kinetic of over 47.6 µg/mL.
For `Cc1ccc(S(=O)(=O)Nc2nc(C)c(C)s2)cc1`, the solubility kinetic was 13.5 µg/mL (≈ 47.8 µM).
Work on `CCOc1ccccc1NC(=O)CCNC(=O)c1ccc(Cl)cc1` yielded a solubility kinetic of 5.6 µg/mL (≈ 16.1 µM).
Molecule `CC1CCC(NC(=O)C(C)N2C(=O)C3CCCCC3C2=O)CC1` (stereo not given) has a solubility kinetic of over 48.1 µg/mL.
In the case of `CCOCCn1c(SC(C)C(C)=O)nc2c1c(=O)[nH]c(=O)n2C` (stereo not given), the solubility kinetic is reported as over 51.1 µg/mL.
Work on `O=C(O)CC1(CC(=O)NCc2cccc(Cl)c2)CCCCC1` yielded a solubility kinetic of over 48.6 µg/mL.
In the case of `COC(=O)c1sc(NC(=O)COc2c(C)cccc2C)nc1C`, the solubility kinetic is reported as 0.4 µg/mL (≈ 1.2 µM).
`Cc1ccc(F)cc1NC(=O)CCOc1ccccc1` showed a solubility kinetic of 8.3 µg/mL (≈ 30.4 µM).
In the case of `O=C(O)c1cc2[nH]c3c(c2cc1Cl)CCCC3`, the solubility kinetic is reported as over 37.5 µg/mL.
In the case of `NC(=O)c1ccc(NC(=O)CCC(=O)c2cccs2)cc1`, the solubility kinetic is reported as 44.6 µg/mL (≈ 148 µM).
In the case of `COc1ccc(OC)c(NC(=O)CN2c3cccc4cccc(c34)S2(=O)=O)c1`, the solubility kinetic is reported as 2.2 µg/mL (≈ 5.52 µM).
For `CC1C(=O)NC(=O)C1c1ccccc1` (stereo not given), the solubility kinetic was over 28.4 µg/mL.
Molecule `Br.Fc1ccc(-c2csc(NC3=NCCC3)n2)cc1` has a solubility kinetic of 43 µg/mL.
Molecule `COc1ccc(-c2noc(CCC(=O)NCC3CCCO3)n2)cc1` (stereo not given) has a solubility kinetic of over 49.7 µg/mL.
Molecule `CSc1ncccc1C(=O)Nc1cccc(C)n1` has a solubility kinetic of over 38.9 µg/mL.
Molecule `Cc1cc(Cl)ccc1OCC(=O)NC(=S)Nc1ccc(Cl)cn1` has a solubility kinetic of under 0.3 µg/mL.
`Cc1ccc(CNC(=O)c2ccc(N(C)C)cc2)cc1` showed a solubility kinetic of 3.2 µg/mL (≈ 11.9 µM).
With `Cc1cc(C(=O)Nc2ccc(F)cc2C)cs1` the solubility kinetic was 24.4 µg/mL (≈ 97.9 µM).
`COc1ccc(NC(=O)NC2(C(=O)N3CCCC3)CCCCC2)cc1` gave a solubility kinetic of 24 µg/mL (≈ 69.5 µM).
`CC(OC(=O)[C@@H](NC(=O)c1ccco1)C(C)C)C(=O)Nc1ncc(Cl)cc1Cl` (stereo not given in full) showed a solubility kinetic of over 64.2 µg/mL.
Molecule `CN(C)c1cccc(C(=O)OCC(=O)N2CCc3ccccc3C2)c1` has a solubility kinetic of 27.9 µg/mL (≈ 82.4 µM).
`COCc1cc(=O)[nH]c(SC)n1` gave a solubility kinetic of over 27.9 µg/mL.
For `O=S(=O)(c1ccccc1)N1CCN(CCc2ccccc2)CC1`, the solubility kinetic was 1.7 µg/mL (≈ 5.14 µM).
Work on `CCOC(=O)CNC(=O)N1CCCC(N(C)CCc2ccccc2)C1` (stereo not given) yielded a solubility kinetic of over 52.1 µg/mL.
With `COC(=O)c1c(-c2ccccc2)noc1C` the solubility kinetic was 18.1 µg/mL (≈ 83.3 µM).
For `Cc1cc(C)c(C#N)c(N2CCN(c3ccccc3)CC2)n1`, the solubility kinetic was 3.8 µg/mL (≈ 13 µM).
For `COC(=O)c1sccc1NC(=O)Nc1ccc(C)cc1C`, the solubility kinetic was 6.6 µg/mL (≈ 21.7 µM).
For `CC1CCN(C(=O)NC(=O)c2ccccc2)CC1`, the solubility kinetic was over 36.9 µg/mL.
In the case of `O=C(COC(=O)c1ccc2ccccc2n1)Nc1ccccc1Br`, the solubility kinetic is reported as 12.4 µg/mL (≈ 32.2 µM).
Work on `O=C(C1=C(O)C(=O)N(Cc2cccnc2)C1c1cccc(Oc2ccccc2)c1)c1ccco1` (stereo not given) yielded a solubility kinetic of over 67.9 µg/mL.
`CCOc1ccc(NC(=O)CCC(=O)c2ccc(F)cc2)cc1` gave a solubility kinetic of 2.5 µg/mL (≈ 7.93 µM).
Work on `CC(=O)NCCc1cnc[nH]1` yielded a solubility kinetic of over 23 µg/mL.
With `O=C(Nc1cccc(F)c1)NC1CCCc2ccccc21` (stereo not given) the solubility kinetic was 2.1 µg/mL (≈ 7.39 µM).
Molecule `O=C(COC(=O)/C=C/c1ccc(F)cc1)Nc1ccc(S(=O)(=O)N2CCOCC2)cc1` has a solubility kinetic of 6.1 µg/mL (≈ 13.6 µM).
In the case of `CN(c1ccc(O)cc1)c1nc(-c2cccnc2)cs1`, the solubility kinetic is reported as 3.2 µg/mL (≈ 11.3 µM).
Molecule `COc1cc(CNCCc2ccc3c(c2)OCO3)ccc1O.Cl` has a solubility kinetic of over 50.7 µg/mL.
With `CN1CCN(c2ccc(NC(=O)CN3CCOCC3)cc2F)CC1` the solubility kinetic was over 50.5 µg/mL.
Molecule `Cc1ccc2c(c1)N(CC(=O)N1CCC(O)CC1)C(=O)CO2` has a solubility kinetic of over 45.7 µg/mL.
`C=CCSc1nc2sc3c(c2c(=O)[nH]1)CC(C)(CC)OC3` (stereo not given) showed a solubility kinetic of 0.5 µg/mL (≈ 1.55 µM).
With `COC(=O)Cn1c2nc3ccccc3nc2c2cccc(C)c21` the solubility kinetic was 0.2 µg/mL (≈ 0.655 µM).
With `CC(C)(CNC(=O)c1cccc(F)c1)CNC(=O)c1cccc(F)c1` the solubility kinetic was 13.2 µg/mL (≈ 38.1 µM).

Reference: PubChem BioAssay AID1996
